Test results from patent US10766873B2, “Zuclopenthixol hydrochloride derivatives and Ebselen derivatives as ErbB2 inhibitors” (Centre National de la Recherche Scientifique (CNRS), priority 2016, dated 2020).

How the values were obtained:
BT474 = experiment: MTT cell proliferation, BT474; format: cell-based, human
Description: (§1) We then analyzed the ability of ZU and EB1 and their derivatives to decrease the ErbB2-dependent cell proliferation.
(§2) SKBR3, BT474, MCF-7, MDA-MB-231 and HBMEC cells were treated with the compounds as indicated, and cell proliferation was determined each day during 3 days using an MTT assay. Non treated cells were included as a negative control.
A solution of ZU in cis conformation was mixed to a solution of ZU in trans conformation (1:1) to obtain ZU in a 50/50 cis/trans conformation and their respective effects on ErbB2 activation and ErbB2-dependent cell proliferation were analyzed as previously by dot blot analysis using an anti-phosphotyrosine antibody (clone 4G10) and by MTT assays in the ErbB2-overexpressing breast cancer cell line SKBR3, BT474, or HBMEC as a control.

[1] = system: WT ErbB2-transfected cells; experiment: MTT cell proliferation, WT ErbB2-transfected HBMEC; format: cell-based; settings: day 3
Description: (§3) The WT, V777L or V842I ErbB2-transfected cells were treated with 5 or 10 μM of ZU and cell proliferation was determined each day during 3 days using an MTT assay. Non transfected cells were included as a negative control.
(§4) The WT, V777L or V842I ErbB2-transfected cells were treated with 5 or 10 μM of EB1 and cell proliferation was determined each day during 3 days using an MTT assay. Non transfected cells were included as a negative control.

SKBR3 = experiment: Soft agar colony formation, SKBR3; format: cell-based, human; settings: 5 or 10 μM, 6 weeks
Description: A bottom layer of 0.8% agarose in DMEM supplemented with 20% SVF and penicillin/streptomycin was added to 24 well plates before seeding 25.10^3 SKBR3 or BT474 cells/well in a 0.6% agarose top layer. Cells were left untreated or treated with 5 or 10 μM ZU or EB1 or 5 μM AG1478 (a non-specific ErbB2 kinase inhibitor) as a positive control. Treatments were renewed 3 times a week. After 6 weeks, the number of colonies and their size were quantified using image J software. The colony formation is illustrated for each condition. Data are presented as mean±SEM.

HBMEC = experiment: MTT cell proliferation, HBMEC control cells; format: cell-based, human
Description: as §1, §2, §3, §4

For `O=C1c2ccccc2[Se](=O)N1c1ccccc1` (stereo not shown) [EB1, Ebselen oxide], the IC50 (BT474; Homo sapiens, BT-474) was 5.5 µM, the EC50 (BT474; Homo sapiens, BT-474, 72 h, day 3, read-out: Cell proliferation at d 3 BT474 EC50) was 5.5 µM and the “Cell proliferation at d 3 BT474 Max inhibition, %” value (BT474; day 3) was 100%. The “decrease of the proliferation of WT transfected HBMEC” value ([1]; 5 μM) was 60%, the “decrease of the proliferation of WT transfected HBMEC” value ([1]; 10 μM) was 95% and the “anchorage-independent growth of SKBR3 (in words)” value (SKBR3) was “inhibited the anchorage-independent growth”. The “effect on HBMEC proliferation (in words)” value (HBMEC; 10 μM) was “without any effect”, the “effect on proliferation of non-transfected HBMECs cells (in words)” value (HBMEC; 10 μM, day 3) was “no effect” and the EC50 (HBMEC; Homo sapiens, 72 h, read-out: Cell proliferation at d 3 HBMEC EC50, μM) was 99.2 µM. The “Cell proliferation at d 3 HBMEC Max inhibition, %” value (HBMEC; day 3) was 94.4%.
